From patent publication US20030004162A1, “Use of glycogen phosphorylase inhibitors” (priority 2000, published 2003)

**Q.** For CCN1C(=O)C(C(=O)Nc2cccc(C(=O)Nc3ccccc3)c2)c2cc(C(C)=O)ccc21 (stereo not drawn) [Example 1, 5-Acetyl-1-ethyl-2-oxo-2,3-dihydro-1H-indole-3-carboxylic acid (3-phenylcarbamoyl-phenyl)-amide], which melting point is on record?
**A.** Its melting point is 173 to 175 °C.

**Q.** Which melting point does the source give for CCN1C(=O)C(C(=O)Nc2cccc(C(=O)Nc3ccc(I)cc3)c2)c2cc(C(C)=O)ccc21 (stereo not drawn) [Example 9, 5-Acetyl-1-ethyl-2-oxo-2,3-dihydro-1H-indole-3-carboxylic acid [3-(4-iodo-phenylcarbamoyl)-phenyl]-amide] here?
**A.** Its melting point is 205 to 210 °C.

**Q.** With CC(=O)c1ccc2c(c1)C(C(=O)Nc1cccc(C(=O)Nc3ccccc3)c1)C(=O)N2C (stereo not drawn) [Example 12, 5-Acetyl-1-methyl-2-oxo-2,3-dihydro-1H-indole-3-carboxylic acid (3-phenylcarbamoyl-phenyl)-amide] as the molecule, how does the melting point read?
**A.** Its melting point is 178 to 179 °C.

**Q.** With CCC(=O)c1ccc2c(c1)C(C(=O)Nc1cccc(C(=O)Nc3ccccc3)c1)C(=O)N2CC (stereo not drawn) [Example 14, 1-Ethyl-2-oxo-5-propionyl-2,3-dihydro-1H-indole-3-carboxylic acid (3-phenylcarbamoyl-phenyl)-amide] as the molecule, how does the melting point read?
**A.** Its melting point is 179 to 180 °C.

**Q.** For CC(=O)c1ccc2c(c1)C(C(=O)Nc1cccc(C(=O)Nc3ccccc3)c1)C(=O)N2CC(F)(F)F (stereo not drawn) [Example 16, 5-Acetyl-2-oxo-1-(2,2,2-trifluoro-ethyl)-2,3-dihydro-1H-indole-3-carboxylic acid (3-phenylcarbamoyl-phenyl)-amide], which melting point is on record?
**A.** The melting point was 197 to 203 °C.

**Q.** With O=C(N[C@@H](Cc1ccccc1)C(=O)N1CCOCC1)c1cc2cc(Cl)sc2[nH]1 [Example 19, 2-Chloro-6H-thieno[2,3-b]pyrrole-5-carboxylic acid [(1S)-benzyl-2-morpholin-4-yl-2-oxo-ethyl]-amide] as the molecule, how does the melting point read?
**A.** Its melting point is 108 to 110 °C.
